# From patent US20200163984A1, “USE OF ISOVALERYL SPIRAMYCIN I, II AND/OR III IN MANUFACTURING MEDICAMENT FOR TREATING AND/OR PREVENTING TUMOR, AND MEDICAMENT” (SHENYANG FUYANG PHARMACEUTICAL TECHNOLOGY CO., LTD., priority 2017, published 2020)
# Experiments:
# [1] = test system: transplanted tumor of human thyroid cancer cell TPC-1; experiment: TPC-1 transplanted tumor in nude mice
# Experimental: (§1) Then cell concentration was adjusted to 1×10^7/ml with matrigel, then each nude mouse was inoculated subcutaneously with 0.2 ml of cells at its right armpit and recorded as the first day of inoculation. When the tumor grows to be greater than or equal to 100 mm^3, the mice were randomly divided into 11 groups with 6 mice in each group: isovaleryl spiramycin I groups with doses of 25, 50 and 100 mg/kg, isovaleryl spiramycin II groups with doses of 25, 50 and 100 mg/kg, and isovaleryl spiramycin III groups with doses of 25, 50 and 100 mg/kg. Each group was continuously administered intragastrically for 30 days with a dose of 20 ml/kg. The mice were sacrificed the next day after drug withdrawal and the indicators were tested. The long diameter and short diameter of the tumor, and the body weight of each mouse were recorded every 3 days from drug administration to nude mouse sacrifice.
# (§2) The body weight of the nude mice and the long diameter (a) and short diameter (b) of the transplanted tumor were measured every 3 days, and the tumor volume (v), relative tumor volume (RTV) and relative tumor proliferation rate (T/C) are calculated respectively according to the following formulas, wherein V=a×b^2/2; RTV=V/V0 (V0 is the tumor volume before administration, V is the tumor volume before sacrifice), and T/C (%)=treatment group RTV/model control group RTV×100%.
# (§3) Each mouse was weighed and sacrificed. After the tumor was completely stripped off from the body of the mouse, the non-tumor tissues such as blood stains and fat were removed to weigh the tumor and calculate the tumor growth inhibition rate. The average tumor weight of each group of mice is used as an indicator of efficacy. Tumor growth inhibition rate (%)=(1−the average tumor weight of the treatment group/the average tumor weight of the model group)×100%.
# [2] = test system: transplanted tumor of human large cell lung cancer H460 cells; experiment: H460 transplanted tumor in nude mice
# Experimental: as §1, §2, §3
# [3] = test system: transplanted tumor of human breast cancer cell MDA-MB-231; experiment: MDA-MB-231 transplanted tumor in nude mice
# Experimental: as §1, with “group: a model group, a cyclophosphamide group,” for “group:”
# as §2, §3
# [4] = Thymus index and spleen index of Lewis lung cancer tumor-bearing mice; conditions: n = 6
# Experimental: In the Lewis lung cancer model, the mice inoculated with the tumor were randomly divided into groups with 10 mice in each group the next day of inoculation. The groups included: a model control group, a positive drug cyclophosphamide control group (CTX, 30 mg/kg), isovaleryl spiramycin I groups with doses of 13, 26 and 52 mg/kg; isovaleryl spiramycin II groups with doses of 13, 26 and 52 mg/kg; isovaleryl spiramycin III groups with doses of 13, 26 and 52 mg/kg. Each group was continuously administered intragastrically for 15 days with a dose of 20 ml/kg.
# [5] = H460, 25 mg/kg (low dose) i.g. 30 days
# [6] = H460, 50 mg/kg (medium dose) i.g. 30 days
# [7] = H460, 100 mg/kg (high dose) i.g. 30 days
# [8] = MDA-MB-231, 25 mg/kg (low dose) i.g. 30 days
# [9] = MDA-MB-231, 50 mg/kg (medium dose) i.g. 30 days
# [10] = MDA-MB-231, 100 mg/kg (high dose) i.g. 30 days
smiles,measurement,setting,value
"CO[C@@H]1[C@@H](O[C@@H]2O[C@H](C)[C@@H](O[C@H]3C[C@@](C)(O)[C@@H](OC(=O)CC(C)C)[C@H](C)O3)[C@H](N(C)C)[C@H]2O)[C@@H](CC=O)C[C@@H](C)[C@@H](O[C@H]2CC[C@H](N(C)C)[C@@H](C)O2)/C=C/C=C/C[C@@H](C)OC(=O)C[C@H]1O [Isovaleryl spiramycin I, isovaleryl spiramycin I]",Tumor Volume (mm3) (d 1),"[1]; dose 100 mg/kg, d 1",112.69 ± 11.49 mm3
same,Tumor Volume (mm3) (d30),"[1]; dose 100 mg/kg, d 30",490.15 ± 322.14 mm3
same,mouse weight compared with the model group,"[1]; mouse, in vivo",no significant changes
same,Body Weight (g) (d1),"[1]; mouse, in vivo, 25 mg/kg",21.75 ± 1.23 g
same,Body Weight (g) (d30),"[1]; mouse, in vivo, 25 mg/kg",24.41 ± 1.32 g
same,Body Weight (g) (d1),"[1]; mouse, in vivo, 50 mg/kg",21.53 ± 1.43 g
same,Body Weight (g) (d30),"[1]; mouse, in vivo, 50 mg/kg",25.77 ± 1.10 g
same,Body Weight (g) (d1),"[1]; mouse, in vivo, 100 mg/kg",21.76 ± 1.08 g
same,Body Weight (g) (d30),"[1]; mouse, in vivo, 100 mg/kg",24.12 ± 1.20 g
same,Inhibition Rate (tumor growth inhibition rate),[2]; [5],20.70%
same,Relative Tumor Proliferation Rate (T/C),[2]; [5],56.56%
same,Relative Tumor Volume (RTV),[2]; [5],5.94 ± 2.02
same,Tumor Volume (d 1),[2]; [5],148.20 ± 15.93 mm3
same,Tumor Volume (d 30),[2]; [5],889.44 ± 343.94 mm3
same,Tumor Weight,[2]; [5],1.37 ± 0.13 g
same,Inhibition Rate (tumor growth inhibition rate),[2]; [6],46.33%
same,Relative Tumor Proliferation Rate (T/C),[2]; [6],49.00%
same,Relative Tumor Volume (RTV),[2]; [6],5.15 ± 2.25
same,Tumor Volume (d 1),[2]; [6],148.51 ± 17.68 mm3
same,Tumor Volume (d 30),[2]; [6],753.94 ± 306.82 mm3
same,Tumor Weight,[2]; [6],0.93 ± 0.18 g
same,Inhibition Rate (tumor growth inhibition rate),[2]; [7],70.11%
same,Relative Tumor Proliferation Rate (T/C),[2]; [7],31.96%
same,Relative Tumor Volume (RTV),[2]; [7],3.36 ± 0.85
same,Tumor Volume (d 1),[2]; [7],145.08 ± 19.59 mm3
same,Tumor Volume (d 30),[2]; [7],477.54 ± 89.21 mm3
same,Tumor Weight,[2]; [7],0.52 ± 0.07 g
same,tumor volume and relative tumor volume compared with the model group,"[2]; H460, low, medium and high doses, P<0.05",significantly lower
same,mouse weight compared with the model group,"[2]; mouse, in vivo",no significant changes
same,Inhibition Rate (tumor growth inhibition rate),[3]; [8],22.84%
same,Relative Tumor Proliferation Rate (T/C),[3]; [8],69.71%
same,Relative Tumor Volume (RTV),[3]; [8],10.89 ± 2.52
same,Tumor Volume (d 1),[3]; [8],111.07 ± 8.47 mm3
same,Tumor Volume (d 30),[3]; [8],1213.38 ± 299.29 mm3
same,Tumor Weight,[3]; [8],1.79 ± 0.34 g
same,Inhibition Rate (tumor growth inhibition rate),[3]; [9],55.17%
same,Relative Tumor Proliferation Rate (T/C),[3]; [9],44.18%
same,Relative Tumor Volume (RTV),[3]; [9],6.90 ± 2.43
same,Tumor Volume (d 1),[3]; [9],116.00 ± 8.13 mm3
same,Tumor Volume (d 30),[3]; [9],807.45 ± 319.26 mm3
same,Tumor Weight,[3]; [9],1.04 ± 0.44 g
same,Inhibition Rate (tumor growth inhibition rate),[3]; [10],69.11%
same,Relative Tumor Proliferation Rate (T/C),[3]; [10],27.74%
same,Relative Tumor Volume (RTV),[3]; [10],4.33 ± 3.47
same,Tumor Volume (d 1),[3]; [10],111.91 ± 10.26 mm3
same,Tumor Volume (d 30),[3]; [10],458.55 ± 338.74 mm3
same,Tumor Weight,[3]; [10],0.72 ± 0.48 g
same,tumor volume and relative tumor volume compared with the model group,"[3]; MDA-MB-231, low, medium and high doses, P<0.05",significantly lower
same,mouse weight compared with the model group,"[3]; mouse, in vivo",no significant changes
same,Spleen Index (%),[4]; dose 13 mg/kg,0.72 ± 0.21%
same,Thymus Index (%),[4]; dose 13 mg/kg,0.12 ± 0.03%
same,Spleen Index (%),[4]; dose 26 mg/kg,0.62 ± 0.15%
same,Thymus Index (%),[4]; dose 26 mg/kg,0.13 ± 0.04%
same,Spleen Index (%),[4]; dose 52 mg/kg,0.77 ± 0.14 %
same,Thymus Index (%),[4]; dose 52 mg/kg,0.12 ± 0.06%
